Consider six compounds from patent publication US6518278B1, “Carcinostatic substance for compatible administration, process of administrating same and process of rapidly inspecting same” (Debio Pharm S.A., priority 1994, dated 2003).

SMILES strings stand for the structures. “Also recorded” adds a separate entry of the source. Where two headings read alike, the source gives them in different places.

For data set [1], the system named is living cells. Kind of data set: Fluorescence dye bonded to living cells: does the cell stay alive. The class given is cell-based. An excerpt: As the said fluorescence dye, the above DAPI can be employed. Although the DAPI itself is known, the use for the observation of the cell division while keeping the cells alive is unknown. The present inventors have investigated such fluorescence dye as Hoechst 33258, acridine orange and acridine yellow other than the DAPI.

In data set [2] the test system is human leutecyte strain cell (RPMI-8402). Description: Extinction effect of compatible administration of l-OHP and a compatible agent on tumor cells (compatible efficiency OE). The class given is cell-based. Particulars: for Compatible Effects of l-OHP and Compatible Agent, Simultaneous Administration: both added day 1. Put shortly: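 RPMI-8402 cells (10^6/ml, 15% fetal bovine serum) got l-OHP (5 or 1 μg/ml) with a partner agent at high or low dose (e.g. cisplatin 1 or 0.5, 5-FU 10 or 5 μg/ml; irinotecan fixed at 10 μg/ml) on the same day or staggered days 1–4 in either order. Cell kill was corrected for the untreated control. A combination index of 85–115% was scored additive, >115% synergistic.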

The subject of data set [3] is human leutecyte strain cells (RPMI-8402). Kind of data set: Rapid inspection of carcinostatic substances by counting divided cells with DAPI. The class given is cell-based. Particulars: for number of the divided cells compared with the control (FIG. 15): 0.05 μg/ml VCR, 0.05 μg/ml VDS, 20 μg/ml MST-16, with 1 μg/ml DAPI; for division phases of the divided cells (microscope observation): ratio of the divided cells increased after the initiation of the cultivation, no anaphase or telophase cells observed. Here is the method: After over a certain number of cancer cells are prepared by cultivation, a carcinostatic substance is added to the cancer cells. The number of the cells under the cell division at the respective measuring times is counted while continuing the cultivation. […] Accordingly, the effectiveness of the carcinostatic substance can be inspected by counting the number of the cells under the cell division among a certain number (for example, one thousand) of cells several times, comparing the said number with that of the former counting or the previous counting thereof and grasping the progress of the cell division by means of the increase or the decrease of the above comparison. If the DAPI is added with the carcinostatic substance during this procedure, the accurate counting of the number of the divided cells can be performed because the cells under the any phase of the cell division can be recognized. When the number of the divided cells decreases as a result of the comparison between the measurement values, it is judged that the multiplication of the cancer cells is depressed, or the function of the carcinostatic substance is performed. When, on the other hand, the number of the divided cells increases compared with the control, a certain function of the carcinostatic substance is judged to be performed. […] To the respective cultivation liquids were added, together with 1 μg/ml of the DAPI, (1) the control (no addition of the carcinostatic substance), (2) 5 μg/ml of CPT (camptotecin), (3) 10 μg/ml of CPT-11 ([…]), (4) 0.06 μg/ml of ADR (adriamycin), (5) 0.05 μg/ml of DNR (daunomycin), (6) 1 μ/ml of etoposide, (7) 20 μg/ml of MST-16 (sopsoxane), (8) 1 μg/ml of […]), (9) μg/ml of Act-D (actinomycin D), (10) 0.1 μg/ml of mitoxantrone. (11) 20 μg/ml of 5-FU, (12) 10 μg/ml of Ara-C (cytosinarabinoside) (13) 50 μg/ml of hydroxyurea, (14) 2 μg/ml of Aphidicolin, (15) 10 μg/ml of MTX (mesotroxate), (16) 0.05 μg/ml of VCR (vincristin), (17) 0.05 μg/ml of […]). (5) μg/ml of cisplatin, (18) 10 μg/ml of bleomycin, (20)10 μg/ml of MMC (mitomycin C) and (21) 5 μg/ml of cyclophospamide (endoxane). The samples were sampled from the respective cultivation liquids after one hour, […], 24 hours and then every 24 hour from the initiation of the cultivation. The samples were evaluated in accordance with the procedures of the preceding Examples. The results are shown in a graph of FIG. 15.

In data set [4] the test system is living cells. Particulars: dye bonded to the cell; inventor's earlier meeting article (1990); cited from earlier work.
Setting [5] is: larger dosage of compatible agent (μg/ml: cisplatin 1, 5-FU 10, irinotecane 10, adriamycin 0.05, vincristin 0.05, vindecin 0.05, etoposide 1, bleomycin 10, mitoxantrone 0.1, mitomycine 1), l-OHP 1 μg/ml (5 μg/ml with irinotecane) added day 1.
Where [6] appears, read: larger dosage of compatible agent (μg/ml: cisplatin 1, 5-FU 10, irinotecane 10, adriamycin 0.05, vincristin 0.05, vindecin 0.05, etoposide 1, bleomycin 10, mitoxantrone 0.1, mitomycine 1), l-OHP 1 μg/ml (5 μg/ml with irinotecane).
[7] abbreviates: larger dosage of compatible agent added day 1 (μg/ml: cisplatin 1, 5-FU 10, irinotecane 10, adriamycin 0.05, vincristin 0.05, vindecin 0.05, etoposide 1, bleomycin 10, mitoxantrone 0.1, mitomycine 1), l-OHP 1 μg/ml (5 μg/ml with irinotecane).
Setting [8] is: smaller dosage of compatible agent (μg/ml: cisplatin 0.5, 5-FU 5, irinotecane 10, adriamycin 0.01, vincristin 0.01, vindecin 0.01, etoposide 0.5, bleomycin 1, mitoxantrone 0.05, mitomycine 0.5), l-OHP 1 μg/ml added day 1.
Setting [9] is: smaller dosage of compatible agent (μg/ml: cisplatin 0.5, 5-FU 5, irinotecane 10, adriamycin 0.01, vincristin 0.01, vindecin 0.01, etoposide 0.5, bleomycin 1, mitoxantrone 0.05, mitomycine 0.5), l-OHP 1 μg/ml.
Setting [10] is: smaller dosage of compatible agent added day 1 (μg/ml: cisplatin 0.5, 5-FU 5, irinotecane 10, adriamycin 0.01, vincristin 0.01, vindecin 0.01, etoposide 0.5, bleomycin 1, mitoxantrone 0.05, mitomycine 0.5), l-OHP 1 μg/ml.

On to `CN1CCN(c2ccc3[nH]c(-c4ccc5[nH]c(-c6ccc(O)cc6)nc5c4)nc3c2)CC1` [Hoechst 33258], for which the “toxicity of fluorescence dye to the cell” value in the data set on living cells [1] (dye bonded to living cells) was “toxicity is too strong to keep the cell alive”.

Take `CN(C)c1ccc2cc3ccc(N(C)C)cc3nc2c1` [acridine orange]: in the data set with living cells [1], the “toxicity of fluorescence dye to the cell” value is “toxicity is too strong to keep the cell alive”.

In the case of `Cc1cc2cc3cc(C)c(N)cc3nc2cc1N` [acridine yellow], the “toxicity of fluorescence dye to the cell” value with living cells [1] was “toxicity is too strong to keep the cell alive”.

With `CC[C@]1(O)C[C@@H]2CN(CCc3c([nH]c4ccccc34)[C@@](C(=O)OC)(c3cc4c(cc3OC)N(C)[C@H]3[C@@](O)(C(N)=O)[C@H](O)[C@]5(CC)C=CCN6CC[C@]43[C@@H]65)C2)C1` [vindecin], the “compatible administration effect with l-OHP, summary in words” value in data set [2] was “the additive effect at best; also recorded: no synergistic effects can be obtained in all the 14 combinations and the additive effects can be obtained in only three combinations”. Also, in data set [2] (setting [5]), the “Compatible Effects of l-OHP and Compatible Agent, Time Lag Administration, Addition Administration of Compatible Agent day 2” value (from here on “Compatible Effects … of Compatible Agent day 2”) is “Δ (Δ: Below Additive Effect)”; the “Compatible Effects of l-OHP and Compatible Agent, Time Lag Administration, Addition Administration of Compatible Agent day 3” value (“Compatible Effects … of Compatible Agent day 3” below) is “Δ (Δ: Below Additive Effect)”; the “Compatible Effects of l-OHP and Compatible Agent, Time Lag Administration, Addition Administration of Compatible Agent day 4” value (shortened to “Compatible Effects … of Compatible Agent day 4”) is “Δ (Δ: Below Additive Effect)”. Further, in data set [2] (setting [6]), the “Compatible Effects of l-OHP and Compatible Agent, Simultaneous Administration” value (“Compatible Effects … Simultaneous Administration” for short) is given as “◯ (◯: Additive Effect)”. Moreover, in data set [2] (setting [7]), the “Compatible Effects of l-OHP and Compatible Agent, Time Lag Administration, Addition Administration of l-OHP day 2” value (“Compatible Effects … of l-OHP day 2” for short) is reported as “◯ (◯: Additive Effect)”; the “Compatible Effects of l-OHP and Compatible Agent, Time Lag Administration, Addition Administration of l-OHP day 3” value (“Compatible Effects … of l-OHP day 3” for short) is listed as “Δ (Δ: Below Additive Effect)”; the “Compatible Effects of l-OHP and Compatible Agent, Time Lag Administration, Addition Administration of l-OHP day 4” value (“Compatible Effects … of l-OHP day 4” for short) is on record as “Δ (Δ: Below Additive Effect)”. In data set [2] (setting [8]), the “Compatible Effects … of Compatible Agent day 2” value is “Δ (Δ: Below Additive Effect)”; the “Compatible Effects … of Compatible Agent day 3” value is “Δ (Δ: Below Additive Effect)”; the “Compatible Effects … of Compatible Agent day 4” value is reported as “◯ (◯: Additive Effect)”. Further, in data set [2] (setting [9]), the “Compatible Effects … Simultaneous Administration” value is “Δ (Δ: Below Additive Effect)”. In addition, in data set [2] (setting [10]), the “Compatible Effects … of l-OHP day 2” value is “Δ (Δ: Below Additive Effect)”; the “Compatible Effects … of l-OHP day 3” value is “Δ (Δ: Below Additive Effect)”; the “Compatible Effects … of l-OHP day 4” value was “Δ (Δ: Below Additive Effect)”. For the same compound, in data set [3], the “number of the divided cells compared with the control (FIG. 15)” value was “remarkable increases of the numbers of the divided cells”; the “division phases of the divided cells (microscope observation)” value was “the division prophase and the division metaphase”.

In the case of `Cl.Cl.N=C(N)c1ccc(-c2cc3ccc(C(=N)N)cc3[nH]2)cc1` [DAPI, 4′,6-diamidino-2-phenylindole•2HCl], in the data set with living cells [4], the “effect of fluorescence dye on living cells” value is “without extinguishing the cells”.

`CC[C@]1(O)C[C@H]2CN(CCc3c([nH]c4ccccc34)[C@@](C(=O)OC)(c3cc4c(cc3OC)N(C=O)[C@H]3[C@@](O)(C(=O)OC)[C@H](OC(C)=O)[C@]5(CC)C=CCN6CC[C@]43[C@@H]65)C2)C1` [vincristin]: the “compatible administration effect with l-OHP, summary in words” value in data set [2] is “the additive effect at best; also recorded: no synergistic effects can be obtained in all the combinations and the additive effects can be obtained in most combinations”. In addition, in data set [2] (setting [5]), the “Compatible Effects … of Compatible Agent day 2” value is recorded as “Δ (Δ: Below Additive Effect)”; the “Compatible Effects … of Compatible Agent day 3” value is reported as “Δ (Δ: Below Additive Effect)”; the “Compatible Effects … of Compatible Agent day 4” value is listed as “◯ (◯: Additive Effect)”. Also, the “Compatible Effects … Simultaneous Administration” value in data set [2] (setting [6]) is listed as “Δ (Δ: Below Additive Effect)”. Also, in data set [2] (setting [7]), the “Compatible Effects … of l-OHP day 2” value is “◯ (◯: Additive Effect)”; the “Compatible Effects … of l-OHP day 3” value was “Δ (Δ: Below Additive Effect)”; the “Compatible Effects … of l-OHP day 4” value is “◯ (◯: Additive Effect)”. Besides, in data set [2] (setting [8]), the “Compatible Effects … of Compatible Agent day 2” value is “◯ (◯: Additive Effect)”; the “Compatible Effects … of Compatible Agent day 3” value is reported as “Δ (Δ: Below Additive Effect)”; the “Compatible Effects … of Compatible Agent day 4” value was “◯ (◯: Additive Effect)”. In addition, the “Compatible Effects … Simultaneous Administration” value in data set [2] (setting [9]) is reported as “Δ (Δ: Below Additive Effect)”. Also, in data set [2] (setting [10]), the “Compatible Effects … of l-OHP day 2” value is on record as “◯ (◯: Additive Effect)”; the “Compatible Effects … of l-OHP day 3” value is “◯ (◯: Additive Effect)”; the “Compatible Effects … of l-OHP day 4” value is “◯ (◯: Additive Effect)”. Besides, in data set [3], the “number of the divided cells compared with the control (FIG. 15)” value is given as “remarkable increases of the numbers of the divided cells”; the “division phases of the divided cells (microscope observation)” value was “the division prophase and the division metaphase”.
